Results reported in paper PMC10347550, “Cyclic Ruthenium-Peptide Conjugates as Integrin-Targeting Phototherapeutic Prodrugs for the Treatment of Brain Tumors” (Journal of the American Chemical Society, 2023).

What was measured:
[1] = Biodistribution of Ru by ICP-OES; assay type: in vivo, mice; conditions: for Ru content, Heart / Ru content, Kidney / Ru content, Liver / Ru content, Lung / Ru content, Spleen / Ru content, Tumor: U87MG tumor-bearing nude mice, ICP-OES, n = 3, ± SD
Description: (§1) All animal studies were approved by the Institutional Animal Care and Use Committee of the US National Institutes of Health and were performed according to the relevant guidelines (8th edition, 2011). Female BALB/c nude mice (6 weeks old) were purchased from Shanghai SLAC Laboratory Animal Co. LTD (Shanghai, China). Tumor-bearing mice were obtained by subcutaneously injecting U87MG tumor cells (2 × 10^6 cells per mouse, dispersed in 100 μL of FBS) into the right hind limb and waiting for 15 days until the tumor volume reached 50–100 mm^3.
The Blab/c nude mice bearing U87MG tumors were randomly assigned to two groups (N = 15) and received an intravenous injection of [1]Cl2 (7.7 mg/kg) or [2]Cl2 (5 mg/kg) at the same molar dose. Then, the mice were sacrificed at 2, 6, 12, 18, and 24 h post-injection (each time point contained 3 mice). The main organs (heart, liver, spleen, kidney, lung) and tumor tissue were dissected. Then, around 1 g of organs and tumors was lysed in a 7 mL mixture solution containing 5 mL of 65% HNO3 and 2 mL of 30% (w/w) H2O2 at 100 °C. After 12 h, all solutions had evaporated, and 5 mL of aqueous solution containing 2% HNO3 was added. The Ru content in all samples was measured by ICP-OES (JY-Horiba ICP-OES Ultima 2).

[2] = Nanoaggregation in Opti-MEM by DLS and TEM; assay type: physicochemical; conditions: 50 μM in Opti-MEM with 2.5% FCS, dark, 24 h (Figure S20)
Description: DLS was used to determine the distribution of particles in complex solutions (50 μM) in Opti-MEM (Gibco complete medium 11058-021, supplemented with 0.2% v/v penicillin/streptomycin (P/S), and 1% v/v glutamine) with or without 2.5% fetal calf serum (FCS) proteins via a ZEN1600 Zetasizer Nano instrument (Malvern Instruments Limited) operated with a 633 nm laser.
The TEM experiments were carried out with a TEM JEOL 1010:100 kV transmission electron microscope using a Formvar/carbon-coated copper grid (Polysciences Inc.). For the preparation of samples, a 1 mM stock aqua solution was diluted to 50 μM by Opti-MEM, after which, each drop (15 μL) of the complex solution was deposited on a parafilm (Bemis, HS234526C). The grids (Electron Microscopy Sciences, 71137) were placed on top of the drops for 5 min and then the excess liquid on the grid was removed with filter paper and air dried for 2 h for the TEM measurement. The TEM measurements were carried out under vacuum conditions.

[3] = tested on: U87MG cells; assay: 2D cytotoxicity assay, 24 h DLI & no wash, SRB endpoint; assay type: cell-based, human; conditions: normoxic 2D monolayer U87MG; for PI: mixture of Δ and Λ isomers (Figure S34a); for EC50: mixture of Δ and Λ isomers, green light 520 nm, 13.1 J/cm^2 (Figure S34a), read-out: EC50,light
Description: For each complex, two identical plates were prepared, one of which was irradiated with light, while the other was used as a dark control. […] Finally, at t = 96 h, 100 μL of cold trichloroacetic acid (10% w/v) was added to each well to fix the cells, and all plates were then transferred to a 4 °C refrigerator for 48 h before performing an SRB cell quantification endpoint assay.[72] Trichloroacetic acid was first removed and each plate was gently washed with demi water 3–5 times. Then, each well was dried in the air, and 100 μL of 0.6% SRB solution (0.6% w/v in 1% v/v acetic acid/H2O solution) was added into each well where it was allowed to stain for 30 min. Then, the plates were washed 3–5 times using an acetic acid solution (1% v/v). Once the plate was washed it was allowed to dry overnight. Then, 200 μL of 10 mM Tris base buffer was added to each well and the plate was allowed to sit on an orbital shaker for 0.5–16 h. After mixing, the absorbance of each well was determined by an M1000 Tecan Reader, reading at 510 nm. All experiments were conducted in independent biological triplicate. The obtained data were analyzed with Graphpad Prism 5 using the dose–response two-parameter Hill slope equation (eq 1) to obtain the half-maximal effective concentrations EC50 (defined as the concentration of drug that kills 50% of cells, compared to the untreated control). [drawing 1] 1

[4] = tested on: subcutaneous U87MG tumor; assay: In vivo tumor inhibition study; design: species or system mice; conditions: for TUNEL staining of tumor slices: day 7, combined with 520 nm laser irradiation; for effect of light irradiation on tumor growth, light group compared to dark group: single i.v. dose day 0 ([1]Cl2 7.7 mg/kg, [2]Cl2 5 mg/kg), 520 nm laser 60 J/cm^2 at DLI 12 h, tumor volume over 15 days
Description: as §1
The mice bearing U87MG solid tumors were first randomly divided into 6 groups (N = 5): PBS, light, [1]Cl2, [2]Cl2, [1]Cl2 + light, and [2]Cl2 + light. The injectable solution of [1]Cl2 or [2]Cl2 was obtained by diluting the stock solution of the compound in DMSO (10 mg/mL) 10 times by RPMI-1640 medium containing 10% FBS, 100 units/mL penicillin, and 100 μg/mL streptomycin. The injection doses of [1]Cl2 and [2]Cl2 were set as 7.7, 5 mg/kg, respectively (injection volume = 100 μL of the same molar weight of Ru in the last four groups). In groups 2, 5, and 6, laser irradiation (520 nm, 100 mW/cm^2, 5 min) was carried out twice at 12 h post-injection, with a 5 min interval. Accordingly, the total laser dose for each illumination was 100 mW/cm^2, 10 min, and 60 J/cm^2. Treatments in all groups were carried out only once on day 0. Digital photos of tumor-bearing mice, the tumor size (length and width, measured with a caliper), and mouse body weight in all groups were recorded every third day. The tumor volume was calculated according to the standard formula: 0.5 × length × width^2. Both the average tumor volume and body weight were followed for 15 days. On day 7, one mouse from each group was sacrificed and then the tumor tissue was dissected and fixed with 10% paraformaldehyde. The tumor cell damage and apoptosis and necrosis conditions were evaluated by H&E or TUNEL stained protocols. On day 15 (the end of the tumor treatment period), all nude mice were humanly sacrificed, and the main organs (heart, liver, spleen, kidney, and lung) and tumors were resected. Digital photographs of tumors in each group were immediately obtained. All normal tissues were fixed with 10% paraformaldehyde and further analyzed in accordance with the H&E staining protocol, to estimate their off-target side effect after various treatments.

[5] = 2 h after i.v. injection of [1]Cl2 7.7 mg/kg or [2]Cl2 5 mg/kg
[6] = 6 h after i.v. injection of [1]Cl2 7.7 mg/kg or [2]Cl2 5 mg/kg
[7] = 12 h after i.v. injection of [1]Cl2 7.7 mg/kg or [2]Cl2 5 mg/kg
[8] = 18 h after i.v. injection of [1]Cl2 7.7 mg/kg or [2]Cl2 5 mg/kg
[9] = 24 h after i.v. injection of [1]Cl2 7.7 mg/kg or [2]Cl2 5 mg/kg

| Compound | Ru content, Heart [1, 5] [%ID/g] | Ru content, Kidney [1, 5] [%ID/g] | Ru content, Liver [1, 5] [%ID/g] | Ru content, Lung [1, 5] [%ID/g] | Ru content, Spleen [1, 5] [%ID/g] | Ru content, Tumor [1, 5] [%ID/g] | Ru content, Heart [1, 6] [%ID/g] | Ru content, Kidney [1, 6] [%ID/g] | Ru content, Liver [1, 6] [%ID/g] | Ru content, Lung [1, 6] [%ID/g] | Ru content, Spleen [1, 6] [%ID/g] | Ru content, Tumor [1, 6] [%ID/g] | Ru content, Heart [1, 7] [%ID/g] | Ru content, Kidney [1, 7] [%ID/g] | Ru content, Liver [1, 7] [%ID/g] | Ru content, Lung [1, 7] [%ID/g] | Ru content, Spleen [1, 7] [%ID/g] | Ru content, Tumor [1, 7] [%ID/g] | Ru content, Heart [1, 8] [%ID/g] | Ru content, Kidney [1, 8] [%ID/g] | other results |
| --- | --- | --- | --- | --- | --- | --- | --- | --- | --- | --- | --- | --- | --- | --- | --- | --- | --- | --- | --- | --- | --- |
| CSCc1ccccn1.[Cl-].[Cl-].[Ru+2].c1ccc(-c2ccnc3c2ccc2c(-c4ccccc4)ccnc23)cc1.c1ccc(-c2ccnc3c2ccc2c(-c4ccccc4)ccnc23)cc1 [[2]Cl2, rac-[Ru(Ph2phen)2(mtmp)]Cl2, reference compound] | 2.0 ± 0.3 | 3.2 ± 0.4 | 40.5 ± 3.3 | 1.5 ± 0.3 | 4.6 ± 0.4 | 1.8 ± 0.3 | 1.9 ± 0.5 | 2.0 ± 0.4 | 29.5 ± 1.9 | 1.6 ± 0.2 | 2.2 ± 0.5 | 6.5 ± 0.5 | 1.8 ± 0.3 | 1.7 ± 0.2 | 16.3 ± 3.3 | 1.7 ± 0.2 | 2.2 ± 0.3 | 12.3 ± 1.5 | 1.7 ± 0.2 | 1.9 ± 0.2 | Ru content, Liver [1, 8]: 14.6 ± 2.3 %ID/g; Ru content, Lung [1, 8]: 1.7 ± 0.1 %ID/g; Ru content, Spleen [1, 8]: 1.6 ± 0.2 %ID/g; Ru content, Tumor [1, 8]: 2.8 ± 0.6 %ID/g; Ru content, Heart [1, 9]: 1.7 ± 0.2 %ID/g; Ru content, Kidney [1, 9]: 1.5 ± 0.1 %ID/g; Ru content, Liver [1, 9]: 7.3 ± 0.8 %ID/g; Ru content, Lung [1, 9]: 1.7 ± 0.1 %ID/g; Ru content, Spleen [1, 9]: 1.7 ± 0.2 %ID/g; Ru content, Tumor [1, 9]: 1.7 ± 0.1 %ID/g; nanoparticle formation (DLS) [2]: not; PI [3]: 6; EC50 [3]: 300 nM; TUNEL staining of tumor slices [4]: induced outstanding apoptosis of tumor cells; effect of light irradiation on tumor growth, light group compared to dark group ([4]; n = 5): statistically nonsignificant |
| [Ru(Ph2phen)2(κ^S,κ^N-(Ac-MRGDH-NH2))]Cl2 (sidechain bridge or staple) [[1]Cl2, mixture of diastereoisomers used for the in vivo study] | 2.2 ± 0.4 | 3.2 ± 0.3 | 40.2 ± 2.8 | 1.5 ± 0.2 | 1.9 ± 0.1 | 2.0 ± 0.5 | 1.8 ± 0.3 | 2.0 ± 0.2 | 29.0 ± 1.6 | 1.6 ± 0.2 | 2.1 ± 0.5 | 7.3 ± 0.4 | 1.8 ± 0.2 | 1.7 ± 0.3 | 16.5 ± 3.5 | 1.6 ± 0.2 | 2.2 ± 0.4 | 15.7 ± 1.3 | 1.9 ± 0.2 | 1.9 ± 0.2 | amount of ruthenium in the tumor higher than for the group treated with [2]Cl2 ([1]; 12 h after i.v. injection, same molar dose, P < 0.01): 28%; Ru content, Liver [1, 8]: 14.4 ± 4.3 %ID/g; Ru content, Lung [1, 8]: 1.8 ± 0.3 %ID/g; Ru content, Spleen [1, 8]: 1.9 ± 0.3 %ID/g; Ru content, Tumor [1, 8]: 7.2 ± 0.5 %ID/g; Ru content, Heart [1, 9]: 1.8 ± 0.1 %ID/g; Ru content, Kidney [1, 9]: 1.8 ± 0.2 %ID/g; Ru content, Liver [1, 9]: 6.1 ± 1.2 %ID/g; Ru content, Lung [1, 9]: 1.7 ± 0.2 %ID/g; Ru content, Spleen [1, 9]: 1.7 ± 0.2 %ID/g; Ru content, Tumor [1, 9]: 4.1 ± 1.0 %ID/g; PI [3]: 16; EC50 [3]: 2400 nM; TUNEL staining of tumor slices [4]: induced outstanding apoptosis of tumor cells; antitumor efficiency compared to [2]Cl2 + light ([4]; single i.v. dose 7.7 mg/kg + 520 nm laser 60 J/cm^2 at DLI 12 h, 15 days, n = 5): better antitumor efficiency; effect of light irradiation on tumor growth, light group compared to dark group ([4]; n = 5): much stronger tumor growth suppression |
